In patent US20080194546A1, “Pyrido-, Pyrazo- and Pyrimido-Pyrimidine Derivatives as mTOR Inhibitors” (KuDOS Pharmaceuticals Limited, priority 2005, published 2008):
Read-outs that look alike come from different tables or passages of the source.

What was measured:
[1] = system: T47D cells; assay: Cell Proliferation Assay (GI50), sulforhodamine B (SRB) assay; assay type: cell-based; settings: Homo sapiens, 120 hours, SRB
Experimental: Cell growth was assessed using the sulforhodamine B (SRB) assay (A). T47D (ECACC, 85102201) cells were routinely passaged in RPMI (Invitrogen, 42401018) plus 10% foetal calf serum (FCS), 1% L-glutamine (Gibco BRL, 25030) to a confluence not greater than 80%. To undertake the assay, T47D cells were seeded at 2.5×10^3 cells/well in […] RPMI plus 10% foetal calf serum, 1% L-glutamine in 96 well plates (Costar, 3904) and incubated at 37° C. (+5% CO2) in a humidified incubator. Once the cells had fully adhered (typically following 4-5 hours incubation) the plate was removed from the incubator and 10 μL of the diluent added to the control wells (A1-12 and B1-12). Compound was prepared in a six point semi-log dilution at 10× the final concentration required e.g. for a 6 point range of 30 μM to 100 nM in semi-log steps dilution started at 300 μM in stock plate. Dosing was completed by addition of 10 μL of compound at highest concentration to C1-12 through to the lowest concentration in H1-12. The plates were then incubated for 120 hours prior to SRB analysis.
Upon completion of incubation, media was removed and the cells fixed with […] of ice cold 10% (w/v) trichloroacetic acid. The plates were incubated at 4° C. for 20 minutes and then washed four times with water. Each well of cells was then stained with 100 μl of 0.4% (w/v) SRB (Sulforhodamine B, Sigma, Poole, Dorset, UK, Catalogue number S-9012) in 1% acetic acid for 20 minutes before washing four times with 1% acetic acid. Plates were then dried for 2 hours at room temperature. The dye from the stained cells was solubilized by the addition of 100 μl of 10 mM Tris Base into each well. Plates were gently shaken and left at room temperature for 30 minutes before measuring the optical density at 564 nm on a Microquant microtiter plate reader. The concentration of inhibitor eliciting a 50% reduction in growth (GI50) was determined by analysis of staining intensity of the treated cells as a percentage of the vehicle control wells using Excelfit software.
(A) Skehan, P., Storung, R., Scudiero, R., Monks, A., McMahon, J., Vistica, D., Warren, J. T., Bokesch, H., Kenny, S. and Boyd, M. R. (1990) New […] cytotoxicity assay for anticancer-drug screening. J. Natl. Cancer Inst. 82, 1107-1112.

[2] = target: T1, mTOR (Homo sapiens, UniProt P42345); assay: Biological Assay: mTOR enzyme activity, mTOR immunoprecipitated from HeLa cell cytoplasmic extract, recombinant PHAS-1 as substrate; assay type: biochemical
T1 construct: mTOR protein was isolated from HeLa cell cytoplasmic extract by immunoprecipitation; endogenous in cells; host or cells: HeLa cell cytoplasmic extract (immunoprecipitate)
Excerpt: For mTOR enzyme activity assays, mTOR protein was isolated from HeLa cell cytoplasmic extract by immunoprecipitation, and activity determined essentially as described previously using recombinant PHAS-1 as a substrate (ref. 21).

[3] = system: phosphorylation of Serine 473 in Akt in MDA-MB-468 cells; assay: In Vitro phospho-Ser473 Akt Assay (Acumen Explorer); assay type: cell-based; settings: Homo sapiens, MDA-MB-468 cells
[4] = target: recombinant mTOR (FLAG-tagged, amino acid residues 1362 to 2549) (Homo sapiens, UniProt P42345); assay: Alternative Enzyme Assay: AlphaScreen, inhibition of phosphorylation by recombinant mTOR; assay type: biochemical
[5] = Biological Assay, upper bounds, read-out: IC50 values against mTOR
[6] = 2 hours, read-out: IC50, phospho-Ser473 Akt assay (cellular IC50, measured by pAkt)
[7] = Alternative Enzyme Assay, upper bounds, read-out: IC50 values against mTOR
[8] = Alternative Enzyme Assay, read-out: IC50 values against mTOR
[9] = compounds of Formula I(B), read-out: IC50 values against mTOR (phospho-Ser473 Akt assay)
[10] = AlphaScreen, ATP 20 μM, read-out: IC50, tested in Alternative Enzyme Assay
[11] = mTOR from HeLa extract, PHAS-1 substrate, read-out: IC50, tested in the Biological Assay

COc1ccc(-c2ccc3c(N4CCOCC4)nc(N4C[C@@H](C)O[C@@H](C)C4)nc3n2)cc1CNCC1CC1 [Example 8g]
GI50 ([1]; upper bounds): < 300 nM
IC50 [2, 5]: < 100 nM

COc1ccc(-c2ccc3c(N4CCOCC4)nc(N4C[C@@H](C)O[C@@H](C)C4)nc3n2)cc1CNCCSCCO [Example 8ad]
GI50 ([1]; upper bounds): < 300 nM
IC50 [2, 5]: < 100 nM

COc1ccc(-c2ccc3c(N4CCOCC4)nc(-c4cc(N)cc(C(=O)O)c4)nc3n2)cc1CO [Example 9a]
IC50 [3, 6]: < 25000 nM
IC50 [4, 7]: < 10000 nM
IC50 [4, 8]: < 300 nM

C[C@@H]1CN(c2nc(N3CCOCC3)c3ccc(-c4ccco4)nc3n2)C[C@H](C)O1 [Example 1r]
GI50 [1]: 232 nM
IC50 [2, 5]: < 1000 nM

C#CC1(NCc2cc(-c3ccc4c(N5CCOCC5)nc(N5C[C@@H](C)O[C@@H](C)C5)nc4n3)ccc2OC)CCCCC1 [Example 8x]
GI50 [1]: < 1000 nM
IC50 [2, 5]: < 1000 nM

COc1ccc(-c2ccc3c(N4CCOCC4)nc(N4C[C@@H](C)O[C@@H](C)C4)nc3n2)cc1CNCC(C)C [Example 8u]
GI50 ([1]; upper bounds): < 300 nM
IC50 [2, 5]: < 1000 nM

COc1ccc(-c2ccc3c(N4CCOCC4)nc(N4C[C@@H](C)O[C@@H](C)C4)nc3n2)cc1CNC(c1ccccc1)c1ccccc1 [Example 8az]
GI50 ([1]; upper bounds): < 300 nM
IC50 [2, 5]: < 1000 nM

COc1ccc(-c2ccc3c(N4CCOC[C@@H]4C)nc(-c4cccc(N)c4)nc3n2)cc1CO [Example 29f]
IC50 [3, 9]: < 300 nM
IC50 [4, 10]: 96 nM
IC50 [4, 8]: < 100 nM

COc1ccc(-c2ccc3c(N4CCOCC4)nc(-c4cccc(C(F)(F)F)c4)nc3n2)cc1CO [Example 9r]
IC50 [3, 6]: < 25000 nM
IC50 [4, 7]: < 1000 nM

COCc1cccc(-c2nc(N3CCOCC3)c3ccc(-c4ccc(OC)c(CO)c4)nc3n2)c1 [Example 9h]
IC50 [3, 6]: < 2500 nM
IC50 [4, 8]: < 300 nM

CCN(CC)CCCNCc1cc(-c2ccc3c(N4CCOCC4)nc(N4C[C@@H](C)O[C@@H](C)C4)nc3n2)ccc1OC [Example 8h]
GI50 [1]: < 1000 nM
IC50 [2, 5]: < 100 nM

COc1ccc(-c2ccc3c(N4CCOCC4)nc(N4C[C@@H](C)O[C@@H](C)C4)nc3n2)cc1CNC(Cc1ccc([N+](=O)[O-])cc1)C(=O)O (stereo partly shown) [Example 8y]
GI50 [1]: < 1000 nM
IC50 [2, 5]: < 1000 nM

COc1ccc(-c2ccc3c(N4CCOCC4)nc(N4C[C@@H](C)O[C@@H](C)C4)nc3n2)cc1CNCCO [Example 8d]
GI50 ([1]; upper bounds): < 300 nM
IC50 [2, 5]: < 100 nM

COc1ccc(-c2ccc3c(N4CCOCC4)nc(-c4cccc(O)c4)nc3n2)cc1CO [Example 9i]
IC50 [3, 6]: < 2500 nM
IC50 [4, 7]: < 10000 nM
IC50 [4, 8]: < 300 nM

COc1ccc(-c2ccc3c(N4CCOCC4)nc(-c4cccc(C=O)c4)nc3n2)cc1CO [Example 9g]
IC50 [3, 6]: < 2500 nM
IC50 [4, 7]: < 10000 nM
IC50 [4, 8]: < 300 nM

CCOc1ccc(-c2ccc3c(N4CCOCC4)nc(N4C[C@@H](C)O[C@@H](C)C4)nc3n2)cc1 [Example 1br]
IC50 [3, 6]: < 2500 nM
IC50 [4, 7]: < 1000 nM

C[C@@H]1CN(c2nc(N3CCOCC3)c3ccc(-c4ccoc4CO)nc3n2)C[C@H](C)O1 [Example 1bi]
IC50 [3, 6]: < 25000 nM
IC50 [4, 8]: < 300 nM

C[C@H]1COCCN1c1nc(N2CCOC[C@@H]2C)c2ccc(-c3ccc(F)c(C#N)c3)nc2n1 [Example 11av, 5-[2,4-bis-((S)-3-methyl-morpholin-4-yl)-pyrido[2,3-d]pyrimidin-7-yl]-2-fluoro-benzonitrile]
IC50 [3, 9]: < 300 nM
IC50 [4, 8]: < 300 nM

CNCc1cc(-c2ccc3c(N4CCOCC4)nc(N4C[C@@H](C)O[C@@H](C)C4)nc3n2)ccc1OC [Example 8f]
GI50 ([1]; upper bounds): < 300 nM
IC50 [2, 5]: < 100 nM

Clc1ccc(-c2ccc3c(N4CCOCC4)nc(-c4cccc(-c5ccccc5)c4)nc3n2)cc1 [Example 9aa]
IC50 [3, 6]: < 25000 nM
IC50 [4, 7]: < 1000 nM

COc1ccc(-c2ccc3c(N4CCOCC4)nc(N4C[C@@H](C)O[C@@H](C)C4)nc3n2)cc1CNCCC1CCCN1C (stereo partly shown) [Example 8ai]
GI50 ([1]; upper bounds): < 300 nM
IC50 [2, 5]: < 100 nM

COc1cccc(-c2nc(N3CCOCC3)c3ccc(-c4ccc(OC)c(CO)c4)nc3n2)c1 [Example 9e]
IC50 [3, 6]: < 25000 nM
IC50 [4, 7]: < 10000 nM
IC50 [4, 8]: < 300 nM

COc1ccc(-c2ccc3c(N4CCOCC4)nc(-c4ccco4)nc3n2)cc1CO [Example 9f]
IC50 [3, 6]: < 25000 nM
IC50 [4, 7]: < 10000 nM
IC50 [4, 8]: < 300 nM

C[C@@H]1CN(c2nc(N3CCOCC3)c3ccc(-c4cccc(/C=N/O)c4)nc3n2)C[C@H](C)O1 [Example 1bg]
IC50 [3, 6]: < 2500 nM
IC50 [4, 8]: < 300 nM

C[C@H]1COCCN1c1nc(N2CCOCC2)c2ccc(-c3ccc(Cl)cc3)nc2n1 [Example 1be]
IC50 [3, 6]: < 2500 nM
IC50 [4, 7]: < 10000 nM
IC50 [4, 8]: < 300 nM

COc1ccc(-c2ccc3c(N4CCOCC4)nc(-c4cccc(CN)c4)nc3n2)cc1CO [Example 9n]
IC50 [3, 6]: < 2500 nM
IC50 [4, 7]: < 1000 nM

C[C@@H]1CN(c2nc(N3CCOCC3)c3ccc(-c4ccc(Cl)cc4)nc3n2)C[C@H](C)O1 [Example 1b]
IC50 [2, 5]: < 100 nM
IC50 [4, 10]: 57 nM

CC(C)Oc1ccc(-c2ccc3c(N4CCOCC4)nc(N4C[C@@H](C)O[C@@H](C)C4)nc3n2)cc1 [Example 1bd]
IC50 [3, 6]: < 25000 nM
IC50 [4, 7]: < 10000 nM
IC50 [4, 8]: < 300 nM

COc1ccc(-c2ccc3c(N4CCOC[C@@H]4C)nc(N4C[C@@H](C)O[C@@H](C)C4)nc3n2)cc1CO [Example 11b]
IC50 [3, 9]: < 100 nM
IC50 [2, 11]: 1.85 nM
IC50 [4, 8]: < 100 nM

C[C@H]1COCCN1c1nc(N2CCOC[C@@H]2C)c2ccc(-c3cccc(Cl)n3)nc2n1 [Example 11v]
IC50 ([3]; compounds of Formula I(B), upper bounds, read-out: IC50 values against mTOR (phospho-Ser473 Akt assay)): < 11000 nM
IC50 [4, 10]: 180 nM
IC50 [4, 8]: < 300 nM

C[C@@H]1CN(c2nc(N3CCOCC3)c3ccc(-c4ccc(OCC5CCCCC5)cc4)nc3n2)C[C@H](C)O1 [Example 1bk]
IC50 [4, 7]: < 1000 nM

OCc1cccc(-c2nc(N3CCOCC3)c3ccc(-c4ccc(Cl)cc4)nc3n2)c1 [Example 9m]
IC50 [3, 6]: < 2500 nM
IC50 [4, 7]: < 1000 nM

O=[N+]([O-])c1cccc(-c2nc(N3CCOCC3)c3ccc(-c4ccc(Cl)cc4)nc3n2)c1 [Example 9v]
IC50 [4, 7]: < 10000 nM

COc1ccc(-c2ccc3c(N4CCOCC4)nc(-c4cccc(C)c4)nc3n2)cc1CO [Example 9d]
IC50 [3, 6]: < 25000 nM
IC50 [4, 7]: < 10000 nM
IC50 [4, 8]: < 300 nM

COc1ccc(-c2ccc3c(N4CCOCC4)ncnc3n2)cc1CO [Example 1bj]
IC50 [3, 6]: < 25000 nM
IC50 [4, 8]: < 300 nM

COc1ccc(-c2ccc3c(N4CCOCC4)nc(-c4cccc(-c5ccccc5)c4)nc3n2)cc1CO [Example 9o]
IC50 [4, 7]: < 10000 nM

COc1ccc(-c2ccc3c(N4CCOCC4)nc(-c4cccc(C#N)c4)nc3n2)cc1CO [Example 9j]
IC50 [3, 6]: < 25000 nM
IC50 [4, 7]: < 10000 nM
IC50 [4, 8]: < 300 nM

COc1ccc(-c2ccc3c(N4CCOCC4)nc(-c4cccc(N)c4)nc3n2)cc1CO [Example 9l]
IC50 [3, 6]: < 2500 nM
IC50 [4, 8]: < 300 nM

C/C(=N/O)c1cccc(-c2ccc3c(N4CCOCC4)nc(N4C[C@@H](C)O[C@@H](C)C4)nc3n2)c1 [Example 1bh]
IC50 [3, 6]: < 25000 nM
IC50 [4, 8]: < 300 nM

COc1ccc(-c2ccc3c(N4CCOCC4)nc(-c4cccc(C(N)=O)c4)nc3n2)cc1CO [Example 9k]
IC50 [3, 6]: < 2500 nM
IC50 [4, 8]: < 300 nM

CCC1CCCCN1c1nc(N2CCOC[C@@H]2C)c2ccc(-c3ccc(OC)c(CO)c3)nc2n1 (stereo partly shown) [Example 11c]
IC50 [3, 9]: < 100 nM
IC50 [2, 11]: 1.84 nM
IC50 [4, 8]: < 300 nM

C[C@@H]1CN(c2nc(N3CCOCC3)c3ccc(-c4ccc(OCC5CCCO5)cc4)nc3n2)C[C@H](C)O1 (stereo partly shown) [Example 1bt]
IC50 [4, 7]: < 1000 nM

CCCOc1ccc(-c2ccc3c(N4CCOCC4)nc(N4C[C@@H](C)O[C@@H](C)C4)nc3n2)cc1 [Example 1bn]
IC50 [4, 7]: < 1000 nM
